Data: US9120787B2, “HIV replication inhibitors” (priority 2011, dated 2015)

Columns and labels:
HIV-1Ba-L [1] = assay: Inhibition of virus replication in MAGI-CCR5 cells (β-galactosidase reporter); format: cell-based; conditions: HIV-1Ba-L in MAGI-CCR5 cells; for IC50: Human immunodeficiency virus 1, 48 hours, β-galactosidase reporter expression, read-out: IC50
Description: (§1) The anti-viral activity of dihydropyrimidines was shown by inhibition of virus replication in MAGI-CCR5 cells. MAGI-CCR5 cells are derived from HeLa-CD4-LTR-β-galactosidase cells. The cells have been engineered to express high levels of CD4 and CCR5 and contain one copy of the HIV-1 LTR promoter driving expression of the β-galactosidase gene upon HIV-1 Tat transactivation. On the day preceding the assay, the cells were plated at 1.0×10^4 cells per well and maintained at 37° C. and 5% CO2 in a humidified incubator. Total cell count and viability was visually assessed using a hemacytometer and trypan blue exclusion.
Compounds were evaluated at six concentrations (triplicate wells/concentration). On the day of assay setup, compound dilutions were prepared at two-times (2×) the final concentrations. Media was decanted and wells were replenished with 50 μl of 2× compounds, followed by the addition of 50 μl of diluted virus. Identical uninfected assays were prepared for parallel cytotoxicity testing.
Evaluation of Dihydropyrimidines vs. HIV-1Ba-L in MAGI-CCR5 Cells

[2] = Cytotoxicity by MTS staining in uninfected MAGI-CCR5 cells; format: cell-based; conditions: human, read-out: TC50
Description: as §1, with “exclusion. Compounds were evaluated at six concentrations (triplicate wells/concentration). On the day of assay setup, compound dilutions were prepared at two-times (2×) the final concentrations. Media was decanted and wells were replenished with 50 μl of 2× compounds, followed by the addition of 50 μl of diluted virus. Identical uninfected assays were prepared for parallel cytotoxicity testing.” for “exclusion.”

HIV-1Ba-L [3] = assay: HIV-1Ba-L replication in PBMCs (supernatant RT end-point)
Description: Evaluation of Dihydropyrimidines vs. HIV-1Ba-L in Peripheral Blood Mononuclear Cells (PBMCs)
Cultures of pooled phytohemagglutinin stimulated peripheral blood mononuclear cells (PBMC) were seeded into a 96-well plate at plating density of 5×10^4 cells/well. Compounds were serially diluted into media in ½-log increments using a high test of […] and […] of each concentration (nine total concentrations). Cells were infected with HIV strains HIV-1Ba-L and NL4-3 at an MOI=0.1. The PBMCs were cultured for seven days in an humidified incubator maintained at 37° C., 5% CO2 atmosphere. At the assay end-point, the supernatant was collected and analyzed for reverse transcriptase activity. For the RT assay, tritiated thymidine triphosphate (3H-TTP, 80 Ci/mmol) was diluted 1:1 dH2O:Ethanol at 1 mCi/ml. Poly rA:oligo dT template:primer was prepared as a stock solution by combining 150 μl poly rA (20 mg/ml) with 0.5 mL oligo dT (20 units/ml) and 5.35 ml sterile dH2O followed by aliquoting (1.0 ml) and storage at −20° C. The RT reaction buffer contained of 125 ml 1.0 M EGTA, 125 ml dH2O, 125 ml 20% Triton X100, 50 ml 1.0 M Tris (pH 7.4), 50 ml 1.0 M DTT, and 40 ml 1.0 M MgCl2. The final reaction mixture was prepared by combining 1 part 3H-TTP, 4 parts dH2O, 2.5 parts poly rA:oligo dT stock and 2.5 parts reaction buffer. To each well, ten microliters of the reaction mixture and 15 μl of virus containing supernatant were added. The plates were incubated at 37° C. for 60 minutes. Following incubation, the reaction volume was spotted onto DE81 filter-mats, washed 5 times for 5 minutes each in a 5% sodium phosphate buffer or 2×SSC. […] were washed 2 times for 1 minute each in distilled water, 2 times for 1 minute each in 70% ethanol, and then dried. Incorporated radioactivity (counts per minute, CPM) was quantified using standard liquid scintillation techniques.

[4] = Cytotoxicity by MTS staining in PBMCs; format: cell-based; conditions: human, peripheral blood mononuclear cells (PBMC), MTS staining, read-out: TC50
Description: Cytotoxicity was assessed by MTS staining. At assay end-point, PBMC were stained with the addition of […] of the soluble tetrazolium-based dye MTS to determine cell viability and quantify compound toxicity. The plates were incubated 4 to 6 hrs at 37° C. Following incubation, the activity was assessed by reading absorbance values at 490/650 nm.

SMILES | TI (TC50/IC50) (HIV-1Ba-L [1]) | IC50 (HIV-1Ba-L [1]) | CC50 at 48 h [2] | TI (TC50/IC50) (HIV-1Ba-L [3]; HIV-1Ba-L in PBMCs) | IC50 (HIV-1Ba-L [3]; Human immunodeficiency virus 1, PBMC, 168 h) | CC50 at 7 days [4]
COc1ccc(C2NC(=O)NC(C)=C2c2nc(-c3ccc(C#N)cc3)cs2)cc1O (stereo not drawn) [Example 72] | A (A = TI (TC50/IC50) ≧ 100.0) | < 1 µM | ≥ 100 µM | – | – | –
CC1=C(c2nc(-c3ccc(C)cc3)cs2)C(c2cccc(O)c2)NC(=O)N1 (stereo not drawn) [Example 73] | D (D < 10.0) | 5 to 100 µM | 50 to 100 µM | – | – | –
CC1=C(c2nc(-c3ccc(C(F)(F)F)cc3)cs2)C(c2cccc(O)c2)NC(=O)N1 (stereo not drawn) [Example 75] | D (D < 10.0) | 5 to 100 µM | < 50 µM | – | – | –
CC1=C(c2nc(-c3ccc([N+](=O)[O-])cc3)cs2)C(c2cccc(O)c2)NC(=O)N1 (stereo not drawn) [Example 76] | A (A = TI (TC50/IC50) ≧ 100.0) | < 1 µM | ≥ 100 µM | – | – | –
CC1=C(c2nc(-c3ccc(C#N)cc3)cs2)C(c2cc(C(F)(F)F)cc(C(F)(F)F)c2)NC(=O)N1 (stereo not drawn) [Example 77] | D (D < 10.0) | > 100 µM | ≥ 100 µM | – | – | –
CC1=C(c2nc(-c3ccc(C#N)cc3)cs2)C(c2cc(O)ccc2O)NC(=O)N1 (stereo not drawn) [Example 78] | D (D < 10.0) | 5 to 100 µM | ≥ 100 µM | – | – | –
CC1=C(c2nc(-c3ccc(C#N)cc3)cs2)C(c2ccc(O)c(O)c2)NC(=O)N1 (stereo not drawn) [Example 79] | A (A = TI (TC50/IC50) ≧ 100.0) | < 1 µM | ≥ 100 µM | – | – | –
CC1=C(c2nc(-c3ccc(C#N)cc3C)cs2)C(c2cccnc2F)NC(=O)N1 (stereo not drawn) [Example 82] | A (A = TI (TC50/IC50) ≧ 100.0) | < 1 µM | 50 to 100 µM | – | – | –
CC1=C(c2nc(-c3ccc(C#N)cc3C)cs2)C(c2ccc(Br)nc2)NC(=O)N1 (stereo not drawn) [Example 84] | B (B < 100.0-50.0) | < 1 µM | < 50 µM | – | – | –
COc1ccc(C2NC(=O)NC(C)=C2c2nc(-c3ccc(C#N)cc3C)cs2)cn1 (stereo not drawn) [Example 85] | B (B < 100.0-50.0) | < 1 µM | < 50 µM | – | – | –
CC1=C(c2nc(-c3ccc(C#N)cc3)cs2)C(Cc2ccccc2)NC(=O)N1 (stereo not drawn) [Example 88] | C (C < 50.0 to 10.0) | 1 to 5 µM | ≥ 100 µM | – | – | –
CC1=C(c2nc(-c3ccc(C#N)cc3)cs2)C(Cc2ccc(C)cc2)NC(=O)N1 (stereo not drawn) [Example 94] | C (C < 50.0 to 10.0) | 1 to 5 µM | 50 to 100 µM | – | – | –
CC1=C(c2nc(-c3ccc(F)cc3)cs2)C(Cc2ccc(C)cc2)NC(=O)N1 (stereo not drawn) [Example 95] | D (D < 10.0) | > 100 µM | ≥ 100 µM | – | – | –
CC(C)(C)NC(=O)[C@@H]1CN(Cc2cccnc2)CCN1C[C@@H](O)C[C@@H](Cc1ccccc1)C(=O)N[C@H]1c2ccccc2C[C@H]1O [Indinavir, reference compound] | – | – | – | >21.0 | 0.048 µM | > 1 µM
